Results published in patent publication US20130172271A1, “Pharmaceutical Spray Drying” (priority 2012, published 2013).
Where a name gives a salt, the structure may show the parent alone.

Tests used:
[1] = Chromatographic purity / impurities of spray dried vancomycin powders (Vancomycin B); assay type: physicochemical
Procedure: (§1) Batches for stability testing were made using the spray dried formulation vancomycin HCl (15% by weight), PEG-400 (3% by weight), mannitol (3% by weight) in WFI, with the API sourced from Abbott Laboratories (North Chicago, Ill.). Spray dried batches were stored at 25° C./60% Relative Humidity (RH), 30° C./60% RH, and 40° C./75% RH for three months. The stability data on moisture by Karl Fischer, pH (of the reconstituted solution), reconstitution time and chromatographic purity are presented in Table 7. The chromatographic purity was examined using the analytical HPLC method described in the current USP (United States Pharmacopeia) monograph for vancomycin. The test results for the API lot used to make the spray dried product were also listed for comparison.
Three vancomycin formulations were prepared in WFI or citrate buffer. The solutions were spray dried as described above. Resultant powders were tested along with the vancomycin HCl API for impurities, reconstitution time and moisture as shown in Table 8.

[2] = Stability testing of spray dried vancomycin batch stored at 25° C./60% RH, 30° C./60% RH and 40° C./75% RH; assay type: physicochemical; settings: Initial
Procedure: as §1
The chromatographic purity of vancomycin B for all samples tested in this study were within USP specifications. All samples were stored at the accelerated conditions of 40° C./75% RH for 3 months and met USP criterion for vancomycin B by chromatographic purity (NLT 80% vancomycin B).

| Compound | N-Demethylvancomycin ([1]; Table 8) [%] | Vancomycin B ([1]; Table 8) [%] | Other ([1]; Table 8, other impurities) [%] | Vancomycin B [2] [%] |
| --- | --- | --- | --- | --- |
| CN[C@H](CC(C)C)C(=O)N[C@H]1C(=O)N[C@@H](CC(N)=O)C(=O)N[C@H]2C(=O)N[C@H]3C(=O)N[C@H](C(=O)N[C@H](C(=O)O)c4cc(O)cc(O)c4-c4cc3ccc4O)[C@H](O)c3ccc(c(Cl)c3)Oc3cc2cc(c3O[C@@H]2O[C@H](CO)[C@@H](O)[C@H](O)[C@H]2O[C@H]2C[C@](C)(N)[C@H](O)[C@H](C)O2)Oc2ccc(cc2Cl)[C@H]1O [API, vancomycin HCl] | 0.6 | 94.9 | 4.5 | – |
| CN[C@H](CC(C)C)C(=O)N[C@H]1C(=O)N[C@@H](CC(N)=O)C(=O)N[C@H]2C(=O)N[C@H]3C(=O)N[C@H](C(=O)N[C@H](C(=O)O)c4cc(O)cc(O)c4-c4cc3ccc4O)[C@H](O)c3ccc(c(Cl)c3)Oc3cc2cc(c3O[C@@H]2O[C@H](CO)[C@@H](O)[C@H](O)[C@H]2O[C@H]2C[C@](C)(N)[C@H](O)[C@H](C)O2)Oc2ccc(cc2Cl)[C@H]1O [API Lot 09097619, vancomycin HCl] | – | – | – | 91.9 |
